Non-standard residues stand in square brackets, D forms with d. Residues, ends and D or L forms follow the SMILES beside them. Tyr(3,5-I2) = N[C@@H](Cc1cc(I)c(O)c(I)c1)C(=O)O

The compound `CC(C)[C@H](NC(=O)[C@H](Cc1cc(I)c(O)c(I)c1)NC(=O)[C@H](CC(=O)O)NC(=O)CNC(=O)[C@H](CCCNC(=N)N)NC(=O)CN)C(=O)O` [[^131I]I-GRGDYV] (H-GRGD[Tyr(3,5-I2)]V-OH) showed a Radiochemical purity in human serum up to 24 h greater than 94%.

(Values after paper PMC8876959, “Comparative Evaluation of Radiochemical and Biological Properties of ^131I- and [^99mTc]Tc(CO)3-Labeled RGD Analogues Planned to Interact with the αvβ3 Integrin Expressed in Glioblastoma” (Pharmaceuticals, 2022).)
